Reference: ChEMBL document CHEMBL2417377, “Hit-to-lead optimization and kinase selectivity of imidazo[1,2-a]quinoxalin-4-amine derived JNK1 inhibitors” (Bioorg Med Chem Lett, 2013)

How the values were obtained:
[1] = target: T1, Acylglycerol kinase, mitochondrial (Homo sapiens) (UniProt Q53H12); assay: Inhibition of AGK in human PC3 cell lysates at 10 uM using desthiobiotin-tagged ATP probe AX9989 followed by trypsinization by LC/MS analysis; details: PC-3
T1 sequence (whole entry): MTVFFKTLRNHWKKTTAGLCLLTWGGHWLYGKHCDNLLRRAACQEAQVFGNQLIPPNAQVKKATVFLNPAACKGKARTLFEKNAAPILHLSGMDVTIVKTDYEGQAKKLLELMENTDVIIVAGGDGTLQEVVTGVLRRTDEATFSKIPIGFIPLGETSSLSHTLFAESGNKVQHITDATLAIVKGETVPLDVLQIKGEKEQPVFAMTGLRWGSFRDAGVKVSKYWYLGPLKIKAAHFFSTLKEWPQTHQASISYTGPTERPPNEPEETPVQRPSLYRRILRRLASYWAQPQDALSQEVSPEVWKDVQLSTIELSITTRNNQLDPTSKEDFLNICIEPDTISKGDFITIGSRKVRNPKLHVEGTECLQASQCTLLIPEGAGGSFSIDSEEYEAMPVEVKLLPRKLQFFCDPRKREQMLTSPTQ

[2] = target: T2, Serine/threonine-protein kinase 4 (Homo sapiens) (UniProt Q13043); assay: Inhibition of MST1 in human PC3 cell lysates at 10 uM using desthiobiotin-tagged ATP probe AX9989 followed by trypsinization by LC/MS analysis; details: PC-3
T2 sequence (whole entry): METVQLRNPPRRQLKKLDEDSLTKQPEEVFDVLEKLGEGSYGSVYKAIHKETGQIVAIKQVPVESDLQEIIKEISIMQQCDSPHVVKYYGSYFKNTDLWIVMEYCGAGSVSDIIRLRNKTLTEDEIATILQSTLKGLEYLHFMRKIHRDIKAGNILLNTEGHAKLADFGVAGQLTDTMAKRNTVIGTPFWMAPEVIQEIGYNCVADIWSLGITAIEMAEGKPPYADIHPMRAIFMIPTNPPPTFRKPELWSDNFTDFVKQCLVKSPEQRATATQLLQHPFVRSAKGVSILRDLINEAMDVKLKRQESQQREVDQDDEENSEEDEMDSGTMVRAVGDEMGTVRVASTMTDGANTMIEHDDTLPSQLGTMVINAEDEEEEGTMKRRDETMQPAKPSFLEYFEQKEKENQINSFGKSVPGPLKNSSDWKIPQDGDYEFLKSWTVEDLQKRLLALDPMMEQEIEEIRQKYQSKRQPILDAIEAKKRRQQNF

PC-3 = assay: Inhibition of ANPbeta in human PC3 cell lysates at 10 uM using desthiobiotin-tagged ATP probe AX9989 followed by trypsinization by LC/MS analysis; format: cell-free
[3] = target: Rho-associated protein kinase 2 (Homo sapiens) (UniProt O75116); assay: Inhibition of ROCK2 in human PC3 cell lysates at 10 uM using desthiobiotin-tagged ATP probe AX9989 followed by trypsinization by LC/MS analysis; details: PC-3
[4] = target: T3, Serine/threonine-protein kinase D2 (Homo sapiens) (UniProt Q9BZL6); assay: Inhibition of PKD2 in human PC3 cell lysates at 10 uM using desthiobiotin-tagged ATP probe AX9989 followed by trypsinization by LC/MS analysis; details: PC-3
T3 sequence (whole entry): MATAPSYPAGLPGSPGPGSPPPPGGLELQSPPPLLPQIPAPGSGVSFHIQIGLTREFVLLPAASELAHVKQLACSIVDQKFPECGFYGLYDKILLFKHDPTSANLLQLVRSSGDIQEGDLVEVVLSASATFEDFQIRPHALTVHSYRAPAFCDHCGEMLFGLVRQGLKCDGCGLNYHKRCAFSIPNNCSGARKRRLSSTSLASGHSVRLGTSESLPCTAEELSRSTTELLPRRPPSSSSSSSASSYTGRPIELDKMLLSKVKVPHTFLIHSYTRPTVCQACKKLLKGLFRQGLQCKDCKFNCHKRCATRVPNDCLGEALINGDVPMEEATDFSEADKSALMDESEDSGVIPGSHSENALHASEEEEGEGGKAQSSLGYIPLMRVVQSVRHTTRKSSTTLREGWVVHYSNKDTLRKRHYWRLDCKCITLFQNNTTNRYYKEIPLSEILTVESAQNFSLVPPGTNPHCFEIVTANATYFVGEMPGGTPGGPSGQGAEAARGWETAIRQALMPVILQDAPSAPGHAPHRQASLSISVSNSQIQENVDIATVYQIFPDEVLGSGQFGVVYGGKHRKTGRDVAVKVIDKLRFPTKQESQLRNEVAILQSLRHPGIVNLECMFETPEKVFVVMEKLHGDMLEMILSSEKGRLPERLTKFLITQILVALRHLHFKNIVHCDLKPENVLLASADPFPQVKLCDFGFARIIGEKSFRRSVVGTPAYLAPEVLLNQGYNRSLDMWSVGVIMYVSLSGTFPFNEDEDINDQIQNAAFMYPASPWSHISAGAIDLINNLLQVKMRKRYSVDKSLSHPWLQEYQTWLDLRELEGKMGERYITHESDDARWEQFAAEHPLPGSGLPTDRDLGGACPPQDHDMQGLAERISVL

[5] = target: Casein kinase I isoform alpha (Homo sapiens) (UniProt P48729); assay: Inhibition of CK1alpha in human PC3 cell lysates at 10 uM using desthiobiotin-tagged ATP probe AX9989 followed by trypsinization by LC/MS analysis; details: PC-3
[6] = target: MAP/microtubule affinity-regulating kinase 3 (Homo sapiens) (UniProt P27448); assay: Inhibition of MARK3 in human PC3 cell lysates at 10 uM using desthiobiotin-tagged ATP probe AX9989 followed by trypsinization by LC/MS analysis; details: PC-3
[7] = target: Tyrosine-protein kinase Fyn (Homo sapiens) (UniProt P06241); assay: Inhibition of FYN in human PC3 cell lysates at 10 uM using desthiobiotin-tagged ATP probe AX9989 followed by trypsinization by LC/MS analysis; details: PC-3
[8] = target: Cyclin-dependent kinase 16 (Homo sapiens) (UniProt Q00536); assay: Inhibition of PCTAIRE1 in human PC3 cell lysates at 10 uM using desthiobiotin-tagged ATP probe AX9989 followed by trypsinization by LC/MS analysis; details: PC-3
[9] = target: Ribosomal protein S6 kinase beta-2 (Homo sapiens) (UniProt Q9UBS0); assay: Inhibition of p70S6Kbeta in human PC3 cell lysates at 10 uM using desthiobiotin-tagged ATP probe AX9989 followed by trypsinization by LC/MS analysis; details: PC-3
[10] = target: Ephrin type-A receptor 2 (Homo sapiens) (UniProt P29317); assay: Inhibition of EphA2 in human PC3 cell lysates at 10 uM using desthiobiotin-tagged ATP probe AX9989 followed by trypsinization by LC/MS analysis; details: PC-3
[11] = target: CaM kinase II (Homo sapiens) (UniProt Q13557+Q13555+Q13554+Q9UQM7); assay: Inhibition of CaMK2alpha/CaMK2beta/CaMK2delta/CaMK2gamma in human PC3 cell lysates at 10 uM using desthiobiotin-tagged ATP probe AX9989 followed by trypsinization by LC/MS analysis; format: protein assay; details: PC-3
[12] = target: Focal adhesion kinase 1 (Homo sapiens) (UniProt Q05397); assay: Inhibition of FAK in human PC3 cell lysates at 10 uM using desthiobiotin-tagged ATP probe AX9989 followed by trypsinization by LC/MS analysis; details: PC-3
Chain of Focal adhesion kinase 1 (Homo sapiens) (Q05397 2-1052 limits assumed): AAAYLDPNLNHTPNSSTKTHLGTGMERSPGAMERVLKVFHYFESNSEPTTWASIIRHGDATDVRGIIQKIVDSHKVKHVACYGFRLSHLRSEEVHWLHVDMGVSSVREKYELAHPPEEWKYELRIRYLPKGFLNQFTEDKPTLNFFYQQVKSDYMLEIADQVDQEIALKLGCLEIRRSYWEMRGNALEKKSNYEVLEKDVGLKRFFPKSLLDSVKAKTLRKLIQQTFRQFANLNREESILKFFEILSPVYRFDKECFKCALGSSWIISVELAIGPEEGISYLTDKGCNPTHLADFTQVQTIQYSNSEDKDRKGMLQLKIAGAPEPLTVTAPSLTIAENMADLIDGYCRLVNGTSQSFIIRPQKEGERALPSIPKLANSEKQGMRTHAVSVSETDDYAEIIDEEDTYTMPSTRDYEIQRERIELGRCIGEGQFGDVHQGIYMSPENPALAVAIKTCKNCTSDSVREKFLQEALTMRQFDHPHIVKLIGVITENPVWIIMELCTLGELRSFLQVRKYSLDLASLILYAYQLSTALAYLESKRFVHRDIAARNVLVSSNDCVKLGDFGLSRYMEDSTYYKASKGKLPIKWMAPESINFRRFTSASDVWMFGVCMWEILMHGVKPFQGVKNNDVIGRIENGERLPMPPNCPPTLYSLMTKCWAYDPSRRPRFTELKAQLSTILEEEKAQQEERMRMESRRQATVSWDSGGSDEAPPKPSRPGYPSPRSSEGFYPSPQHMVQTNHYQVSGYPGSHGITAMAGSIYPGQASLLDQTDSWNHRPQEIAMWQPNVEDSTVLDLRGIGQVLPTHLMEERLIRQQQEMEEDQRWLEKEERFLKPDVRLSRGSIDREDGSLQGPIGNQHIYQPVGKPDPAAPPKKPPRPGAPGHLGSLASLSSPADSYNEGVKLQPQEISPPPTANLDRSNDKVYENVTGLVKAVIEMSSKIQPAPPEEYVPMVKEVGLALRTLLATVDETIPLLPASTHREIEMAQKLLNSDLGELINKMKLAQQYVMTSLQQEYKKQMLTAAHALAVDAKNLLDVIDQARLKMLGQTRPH

Chain of Casein kinase I isoform alpha (Homo sapiens) (P48729 2-337 limits assumed): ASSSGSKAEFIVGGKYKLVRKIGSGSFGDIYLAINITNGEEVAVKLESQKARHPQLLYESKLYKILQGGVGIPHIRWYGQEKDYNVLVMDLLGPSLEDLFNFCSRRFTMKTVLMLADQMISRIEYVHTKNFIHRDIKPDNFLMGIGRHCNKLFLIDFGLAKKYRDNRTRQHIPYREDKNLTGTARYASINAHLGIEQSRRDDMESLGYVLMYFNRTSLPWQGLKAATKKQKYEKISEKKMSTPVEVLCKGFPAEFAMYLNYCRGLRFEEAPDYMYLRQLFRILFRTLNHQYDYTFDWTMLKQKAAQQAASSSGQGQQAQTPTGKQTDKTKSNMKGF
Chain of Ephrin type-A receptor 2 (Homo sapiens) (P29317 whole entry): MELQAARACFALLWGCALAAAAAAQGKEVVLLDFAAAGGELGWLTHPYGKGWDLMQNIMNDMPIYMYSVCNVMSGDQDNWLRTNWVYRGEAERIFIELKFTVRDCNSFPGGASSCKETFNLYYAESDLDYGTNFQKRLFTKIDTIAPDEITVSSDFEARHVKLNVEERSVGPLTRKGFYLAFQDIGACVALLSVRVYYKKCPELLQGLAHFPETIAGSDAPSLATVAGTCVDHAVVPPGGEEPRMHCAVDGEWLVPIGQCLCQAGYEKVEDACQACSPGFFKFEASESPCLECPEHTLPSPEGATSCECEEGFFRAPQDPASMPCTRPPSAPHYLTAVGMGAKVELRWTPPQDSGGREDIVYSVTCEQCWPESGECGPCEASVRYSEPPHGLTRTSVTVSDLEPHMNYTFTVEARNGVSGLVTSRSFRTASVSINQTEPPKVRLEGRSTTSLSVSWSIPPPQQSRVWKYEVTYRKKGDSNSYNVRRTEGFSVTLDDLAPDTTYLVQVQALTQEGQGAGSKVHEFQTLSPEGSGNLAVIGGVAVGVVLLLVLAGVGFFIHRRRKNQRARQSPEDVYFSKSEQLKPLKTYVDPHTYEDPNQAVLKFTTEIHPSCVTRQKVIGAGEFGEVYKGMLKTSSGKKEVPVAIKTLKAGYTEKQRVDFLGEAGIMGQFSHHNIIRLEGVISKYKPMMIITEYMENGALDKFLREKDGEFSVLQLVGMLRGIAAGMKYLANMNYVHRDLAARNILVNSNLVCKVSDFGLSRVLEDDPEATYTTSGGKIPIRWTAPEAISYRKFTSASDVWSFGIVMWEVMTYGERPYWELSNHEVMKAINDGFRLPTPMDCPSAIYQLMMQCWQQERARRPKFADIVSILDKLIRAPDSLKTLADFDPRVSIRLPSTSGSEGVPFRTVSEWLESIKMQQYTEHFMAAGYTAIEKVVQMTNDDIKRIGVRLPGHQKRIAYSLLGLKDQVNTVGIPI
Chain of Rho-associated protein kinase 2 (Homo sapiens) (O75116 whole entry, looked up): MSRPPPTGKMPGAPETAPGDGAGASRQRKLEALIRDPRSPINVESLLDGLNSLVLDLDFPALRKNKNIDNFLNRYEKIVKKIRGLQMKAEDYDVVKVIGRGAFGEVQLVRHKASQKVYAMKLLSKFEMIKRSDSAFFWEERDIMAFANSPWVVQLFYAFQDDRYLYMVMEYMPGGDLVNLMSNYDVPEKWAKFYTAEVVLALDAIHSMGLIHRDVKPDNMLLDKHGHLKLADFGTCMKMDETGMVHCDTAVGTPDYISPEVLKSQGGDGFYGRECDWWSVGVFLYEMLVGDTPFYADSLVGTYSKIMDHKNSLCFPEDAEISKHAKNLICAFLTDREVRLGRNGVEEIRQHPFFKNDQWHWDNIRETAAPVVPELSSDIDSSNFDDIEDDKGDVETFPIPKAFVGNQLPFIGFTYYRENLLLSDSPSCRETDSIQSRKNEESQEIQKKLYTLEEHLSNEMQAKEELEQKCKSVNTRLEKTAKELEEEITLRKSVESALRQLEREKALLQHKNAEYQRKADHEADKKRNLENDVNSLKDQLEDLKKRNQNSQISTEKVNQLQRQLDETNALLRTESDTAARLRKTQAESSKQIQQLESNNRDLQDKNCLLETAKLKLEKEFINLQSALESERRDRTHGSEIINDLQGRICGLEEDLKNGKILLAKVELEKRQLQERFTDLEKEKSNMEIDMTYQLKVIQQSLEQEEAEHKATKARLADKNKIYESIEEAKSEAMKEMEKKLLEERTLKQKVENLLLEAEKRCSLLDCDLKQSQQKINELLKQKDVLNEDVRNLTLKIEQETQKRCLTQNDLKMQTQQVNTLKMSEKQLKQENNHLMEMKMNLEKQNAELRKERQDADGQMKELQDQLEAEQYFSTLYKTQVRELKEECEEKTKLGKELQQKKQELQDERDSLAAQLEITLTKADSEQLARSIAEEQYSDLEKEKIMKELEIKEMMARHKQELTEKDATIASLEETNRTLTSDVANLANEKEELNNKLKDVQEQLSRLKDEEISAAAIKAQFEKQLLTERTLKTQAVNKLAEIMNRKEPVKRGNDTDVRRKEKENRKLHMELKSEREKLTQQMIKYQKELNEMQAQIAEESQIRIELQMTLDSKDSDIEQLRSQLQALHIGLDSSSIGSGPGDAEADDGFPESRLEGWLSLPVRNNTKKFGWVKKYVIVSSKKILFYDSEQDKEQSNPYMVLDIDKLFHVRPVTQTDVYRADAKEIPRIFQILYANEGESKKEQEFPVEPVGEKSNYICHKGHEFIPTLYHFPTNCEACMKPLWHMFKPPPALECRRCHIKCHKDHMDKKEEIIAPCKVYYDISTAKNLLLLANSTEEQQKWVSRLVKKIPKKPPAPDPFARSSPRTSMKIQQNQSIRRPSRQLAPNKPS
Chain of Cyclin-dependent kinase 16 (Homo sapiens) (Q00536 whole entry): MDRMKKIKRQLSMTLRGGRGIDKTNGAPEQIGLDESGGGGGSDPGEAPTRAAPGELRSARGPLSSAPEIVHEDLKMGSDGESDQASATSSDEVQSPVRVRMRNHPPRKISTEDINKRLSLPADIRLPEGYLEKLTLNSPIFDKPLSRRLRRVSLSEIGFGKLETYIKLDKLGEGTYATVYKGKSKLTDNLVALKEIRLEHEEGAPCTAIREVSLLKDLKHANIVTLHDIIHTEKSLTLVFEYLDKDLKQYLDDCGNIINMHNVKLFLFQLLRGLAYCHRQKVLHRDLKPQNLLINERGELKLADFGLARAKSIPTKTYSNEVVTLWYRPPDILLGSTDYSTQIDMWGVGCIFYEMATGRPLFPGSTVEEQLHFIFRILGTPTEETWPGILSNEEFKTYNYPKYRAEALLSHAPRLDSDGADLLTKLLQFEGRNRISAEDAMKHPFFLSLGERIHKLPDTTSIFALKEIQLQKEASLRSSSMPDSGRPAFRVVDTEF
Chain of MAP/microtubule affinity-regulating kinase 3 (Homo sapiens) (P27448 whole entry, looked up): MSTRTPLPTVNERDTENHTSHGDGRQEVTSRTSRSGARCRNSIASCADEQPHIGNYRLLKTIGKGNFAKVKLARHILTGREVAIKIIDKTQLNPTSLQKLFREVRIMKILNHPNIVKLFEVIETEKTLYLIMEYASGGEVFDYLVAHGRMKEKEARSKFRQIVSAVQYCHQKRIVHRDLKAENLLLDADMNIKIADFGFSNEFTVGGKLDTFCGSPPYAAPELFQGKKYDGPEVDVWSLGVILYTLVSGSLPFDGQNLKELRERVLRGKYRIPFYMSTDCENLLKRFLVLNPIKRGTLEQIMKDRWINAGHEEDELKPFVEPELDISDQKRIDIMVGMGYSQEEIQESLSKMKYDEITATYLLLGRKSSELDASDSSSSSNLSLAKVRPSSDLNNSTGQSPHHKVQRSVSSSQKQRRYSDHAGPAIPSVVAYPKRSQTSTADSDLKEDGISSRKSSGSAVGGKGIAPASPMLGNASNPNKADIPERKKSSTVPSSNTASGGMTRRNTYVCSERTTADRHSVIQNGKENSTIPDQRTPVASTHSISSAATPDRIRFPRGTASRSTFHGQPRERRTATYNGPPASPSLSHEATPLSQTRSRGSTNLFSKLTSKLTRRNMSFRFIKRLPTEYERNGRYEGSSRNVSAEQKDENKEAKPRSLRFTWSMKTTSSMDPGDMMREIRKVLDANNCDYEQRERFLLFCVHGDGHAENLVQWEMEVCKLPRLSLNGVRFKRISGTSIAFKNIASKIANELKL

Structure (SMILES) | inhibition [1] [%] | inhibition [2] [%] | inhibition [3] [%] | inhibition [4] [%] | inhibition [5] [%] | inhibition [6] [%] | inhibition [7] [%] | inhibition [8] [%] | inhibition [9] [%] | inhibition [10] [%] | inhibition [11] [%] | inhibition [12] [%] | inhibition (PC-3) [%]
O=C(O)c1ccc2nc(N[C@H]3CC[C@H](O)CC3)c3nccn3c2c1 | < 35 | < 35 | < 35 | < 35 | 57.1 | < 35 | < 35 | 71.1 | < 35 | < 35 | < 35 | < 35 | < 35
O=C(NC1(c2ccccc2)CCC1)c1ccc2nc(N[C@H]3CC[C@H](O)CC3)c3nccn3c2c1 | < 35 | < 35 | < 35 | < 35 | < 35 | < 35 | < 35 | < 35 | < 35 | < 35 | < 35 | < 35 | < 35
C[C@H](NC(=O)c1ccc2nc(N[C@H]3CC[C@H](O)CC3)c3nccn3c2c1)c1ccccc1 | < 35 | < 35 | < 35 | < 35 | < 35 | < 35 | < 35 | < 35 | < 35 | < 35 | < 35 | < 35 | < 35
CC(C)(NC(=O)c1ccc2nc(N[C@H]3CC[C@H](O)CC3)c3nccn3c2c1)c1ccccc1 | < 35 | < 35 | < 35 | < 35 | < 35 | < 35 | < 35 | < 35 | < 35 | < 35 | < 35 | < 35 | < 35
C[C@@H](NC(=O)c1ccc2nc(N[C@H]3CC[C@H](O)CC3)c3nccn3c2c1)c1ccccc1 | < 35 | < 35 | < 35 | < 35 | < 35 | < 35 | < 35 | < 35 | < 35 | < 35 | < 35 | < 35 | < 35
O=C(N[C@H](CO)c1ccccc1)c1ccc2nc(N[C@H]3CC[C@H](O)CC3)c3nccn3c2c1 | < 35 | < 35 | < 35 | < 35 | < 35 | < 35 | < 35 | < 35 | < 35 | < 35 | < 35 | < 35 | < 35

Continued, in another order:

inhibition [1] [%] | inhibition [2] [%] | inhibition [3] [%] | inhibition [4] [%] | inhibition [5] [%] | inhibition [6] [%] | inhibition [7] [%] | inhibition [8] [%] | inhibition [9] [%] | inhibition [10] [%] | inhibition [11] [%] | inhibition [12] [%] | Structure (SMILES) | inhibition (PC-3) [%]
< 35 | < 35 | < 35 | < 35 | < 35 | < 35 | < 35 | < 35 | < 35 | < 35 | < 35 | < 35 | CCC[C@@H](NC(=O)c1ccc2nc(N[C@H]3CC[C@H](O)CC3)c3nccn3c2c1)c1ccccc1 | < 35
< 35 | < 35 | < 35 | 51.7 | 69 | < 35 | < 35 | < 35 | < 35 | < 35 | < 35 | < 35 | NC(=O)c1ccc2nc(N[C@H]3CC[C@H](O)CC3)c3nccn3c2c1 | < 35
< 35 | < 35 | < 35 | < 35 | < 35 | < 35 | < 35 | < 35 | < 35 | < 35 | < 35 | < 35 | O=C(NC1(c2ccccc2)CC1)c1ccc2nc(N[C@H]3CC[C@H](O)CC3)c3nccn3c2c1 | < 35
< 35 | < 35 | < 35 | < 35 | < 35 | < 35 | < 35 | < 35 | < 35 | < 35 | < 35 | < 35 | O=C(NC1(c2ccc(F)cc2)CC1)c1ccc2nc(N[C@H]3CC[C@H](O)CC3)c3nccn3c2c1 | < 35
< 35 | < 35 | < 35 | < 35 | < 35 | < 35 | < 35 | < 35 | < 35 | < 35 | 46.9 | < 35 | CC[C@@H](NC(=O)c1ccc2nc(N[C@H]3CC[C@H](O)CC3)c3nccn3c2c1)c1ccccc1 | < 35
< 35 | < 35 | < 35 | < 35 | < 35 | < 35 | < 35 | < 35 | < 35 | < 35 | < 35 | < 35 | O=C(NC1(Cc2ccc(F)cc2)CC1)c1ccc2nc(N[C@H]3CC[C@H](O)CC3)c3nccn3c2c1 | < 35
